Literature values as cited in patent US20200353057A1, “REDUCING IMMUNOGENICITY TO PEGLOTICASE” (Horizon Pharma Rheumatology LLC, priority 2019, published 2020).
Read-outs that look alike come from different tables or passages of the source.

Tests used:
[1] = system: patients with lupus nephritis; conditions: in vivo
[2] = system: subjects with refractory gout; conditions: doses of 4 to 12 mg, within 24 to 72 hours, from 11.1±0.6 mg/dL
[3] = system: patients with refractory chronic gout
[4] = system: patients with refractory chronic gout; conditions: Phase 2 program
[5] = diluted in infusion bags
[6] = system: organ transplant recipients; conditions: in vivo
[7] = for Detectable in urine: after 8 hours; for Bound to serum proteins: in vivo
[8] = system: patients treated with allopurinol; conditions: human, in vivo
[9] = system: rabbits
[10] = system: renal transplant and RA patients
[11] = system: rats

rituximab: biologic arm of a lupus nephritis RCT on top of MMF and glucocorticoids
Rate of serious infections [1]: 16.6 /100 patient-years

pegloticase
pUAc (plasma urate concentration) after dosing, mean±SD [2]: 1.0±0.5 mg/dL | Patients maintaining a response, antibody titer exceeding 1:2430 at any time ([3]; 7 of 65 patients, another study): 10.8% | Patients with IRs in whom loss of response (return to SUA ≥6 mg/dL) preceded the first IR ([3]; 20/21): 95% | Patients with titers exceeding 1:2430 who developed IRs ([3]; 31 of 52): 60% | Patients maintaining a response, never had an antibody titer above 1:2430 ([3]; 58/65, another study): 89.2% | Patients who developed high titer anti-pegloticase antibodies and subsequently lost response ([3]; 69 of 169 patients, one study): 41% | Occurrence of most common adverse reactions (gout flares, infusion reactions, nausea, contusion or ecchymosis, nasopharyngitis, constipation, chest pain, anaphylaxis, vomiting) ([3]; KXX-treated patients): ≥ 5% | Occurrence of ecchymoses, sore throat, constipation, chest pain, and vomiting ([3]; patients treated with pegloticase): at least 5% | Incidence of infusion-related reactions ([3]; pooled Phase 3, 8 mg biweekly dosing): 26% | Incidence of infusion-related reactions ([3]; pooled Phase 3, 8 mg every-4-week dosing regimen): 40% | Anaphylaxis frequency ([3]; pre-marketing controlled clinical trials): 6.5% | Infusion reactions reported ([3]; pre-marketing controlled clinical trials, 8 mg every 2 weeks): 26% | Participants with high antibody titers who maintained a response (serum urate <6 mg/dL) ([3]; second study): 1 of 52 | Participants with high titers who developed IR ([3]; second study): 60% | Dose-response plateau dose [4]: 12 mg | Minimally effective dose [4]: 4 mg | Safe and optimally effective dose [4]: 8 mg | Stability of diluted solution ([5]; 2° C. to 8° C.): 4 h | Stability of diluted solution ([5]; room temperature (20° C. to 25° C.)): 4 h | Organ transplant recipients with a sustained high titer Ab response to pegloticase [6]: one out of seven

Sc1ncnc2nc[nH]c12 [mercaptopurine, 6-mercaptopurine]
Detectable in urine [7]: no mycophenolate mofetil or mercaptopurine is detectable in urine | Bound to serum proteins [7]: 30%

Oc1ncnc2[nH]ncc12 [allopurinol]
Patients who develop allergic reactions [8]: Approximately 2% | Patients with severe hypersensitivity syndrome [8]: about 0.4%

COc1c(C)c2c(c(O)c1C/C=C(\C)CCC(=O)OCCN1CCOCC1)C(=O)OC2 [Mycophenolate mofetil, 2-morpholinoethyl (E)-6-(1,3-dihydro4-hydroxy-6-methoxy-7-methyl-3-oxo-5-isobenzofuranyl)-4-methyl-4-hexenoate]
Teratogenic effects [9]: teratogenic effects | Increased susceptibility to infection ([10]; RA): < 1% | Leukopenia ([10]; RA): 28% | Nausea and vomiting ([10]; RA): 12% | Increased susceptibility to infection ([10]; renal transplant): 20% | Leukopenia ([10]; renal transplant): > 50% | Neoplasia (lymphoma) ([10]; renal transplant): 0.5% | Neoplasia (other than lymphoma) ([10]; renal transplant): 3% | Detectable in urine [7]: no mycophenolate mofetil or mercaptopurine is detectable in urine | Bound to serum proteins [7]: 30% | Absorption following oral administration ([7]; oral): well absorbed | Teratogenic effects [11]: teratogenic effects
